# Laboratory results from ChEMBL document CHEMBL1132055, “1-Aminoisoquinoline as benzamidine isoster in the design and synthesis of orally active thrombin inhibitors” (Bioorg Med Chem Lett, 1999).
# Key:
# [1] = target: Serine protease 1 (Homo sapiens, UniProt P07477); assay: Compound was tested for inhibitory activity against trypsin
# [2] = test system: Caco-2; settings: Homo sapiens
# Description: Compound was tested for its effect on increasing the permeability of Caco-2 cells
# [3] = target: Prothrombin (Homo sapiens, UniProt P00734); assay: Compound was tested for inhibitory activity against thrombin
# Sequence of Serine protease 1 (P07477 whole entry): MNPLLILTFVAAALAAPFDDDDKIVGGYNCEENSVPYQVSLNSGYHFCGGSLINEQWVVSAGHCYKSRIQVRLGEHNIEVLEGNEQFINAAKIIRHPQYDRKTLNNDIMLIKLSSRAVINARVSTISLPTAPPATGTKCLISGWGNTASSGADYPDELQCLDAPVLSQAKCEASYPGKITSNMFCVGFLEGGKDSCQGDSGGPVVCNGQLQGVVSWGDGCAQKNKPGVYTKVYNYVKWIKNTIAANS
IC50 [1],IC50 [3],Structure (SMILES),Papp [2]
378 µM,–,COc1cc(C)c(S(=O)(=O)N[C@@H](CC(=O)OC(C)(C)C)C(=O)NC(Cc2ccc3c(N)nccc3c2)C(=O)N2CCCCC2)c(C)c1C (stereo partly specified),–
–,–,Cc1c(C)c(S(=O)(=O)NCC(=O)NC(Cc2ccc3c(N)nccc3c2)C(=O)N2CCCCC2)c(C)c2c1OC(C)(C)CC2 (stereo unspecified),37 nm/s
–,357 µM,Cc1ccc(S(=O)(=O)NCC(=O)NC(Cc2ccc3c(N)nccc3c2)C(=O)N2CCCCC2)cc1 (stereo unspecified),–
255 µM,55 µM,Nc1nccc2cc(CC(NC(=O)CNS(=O)(=O)c3ccc4ccccc4c3)C(=O)N3CCCCC3)ccc12 (stereo unspecified),19 nm/s
